The source of these data is US12534707B2, “Method for generating cardiac tissue mimetics” (GENOME BIOLOGICS UG, priority 2019, dated 2026).

“Also recorded” adds a separate entry of the source.

Experiment [1] relates to cardiac tissue mimetics (CTMs). Kind of experiment: CTM vascularisation (GFP-HUVEC sprout length, thickness, branch points). Type of experiment: cell-based, rat, human. The settings on record: 200 μM PE with 1 μM Propranolol or 50 μM Metoprolol, 10 days, vs 0.1% DMSO; FIGS. 21, 22.
In a further experiment the test system is HUVEC spheroids. Put plainly: Spheroid-based angiogenic sprouting assay. The experiment is classed as cell-based, human. The following applies: for endothelial sprouting of HUVEC spheroids with supernatants of CM cultured with PE plus β-blocker: neonatal rat CM 72 hours with 200 μM PE + 1 μM Propranolol or 50 μM Metoprolol, vs PE alone, FIG. 25. The procedure:
After 72 hours, cell culture supernatants were centrifuged (500×g, 5 minutes) to deplete dead cells and stored at −80° C.
Endothelial cell sprouting was studied by in vitro spheroid-based angiogenesis assays. In brief, HUVECs were trypsinized and transferred into a mixture of fully supplemented EBM™ and methylcellulose (80%:20%). […] After 24 hours, spheroids were collected, pelleted (200×g, 3 minuted), resuspended in methylcellulose supplemented with FCS (80%:20%) and embedded in a collagen Type-I gel (Corning; 354236). HUVEC spheroids were then either cultured with fully supplemented EBM (+/−VEGF (50 ng/mL; BioLegend; 583702) or +/−PE (200 μM)), maintenance medium or conditioned cell culture medium.

A further experiment deals with HUVEC. Kind of experiment: Tube formation assay. The experiment is classed as cell-based, human. The settings on record: 1 μM Propranolol or 50 μM Metoprolol, 24 hours on Matrigel, vs Ctrl. and 0.1% DMSO; FIGS. 23, 24. The procedure:
Tube formation assay was performed as previously described (J. U. G. Wagner, E. Chavakis, E. M. Rogg, M. Muhly-Reinholz, S. F. Glaser, S. Gunther, D. John, F. Bonini, A. M. Zeiher, L. Schaefer, M. J. Hannocks, R. A. Boon, S. Dimmeler, 2018, Arterioscler Thromb Vasc Biol 38(5), 1170-1177). Briefly, in vitro tube formation was performed with 2×10^4 HUVECs cultured in 100 μL of fully supplemented EBM™ in 96-well plates (Greiner Bio-One GmbH) that had been coated with 100 μL Matrigel® (Corning; 356234).

The subject of experiment [2] is cardiac tissue mimetics (CTMs). Put plainly: CTM size measurement. The settings on record: 200 μM PE + 1 μM Propranolol / 50 μM Metoprolol vs PE + 0.1% DMSO; FIG. 39.
The subject of experiment [3] is cardiac tissue mimetics (CTMs). Put plainly: Contractility measurement of CTMs (spontaneous beats per minute; pacing at 1 Hz and 15 V). The settings on record: 200 μM PE with 1 μM Propranolol or 50 μM Metoprolol, 10 days, vs PE + 0.1% DMSO; FIG. 20.
Another experiment deals with mature CTMs. Put plainly: Injury assay on mature CTMs (immunofluorescence, SHG, Sirius red). Type of experiment: cell-based, rat, human. The procedure:
In case of whole mount stainings, CTMs were permeabilized with 0.2% Triton® X-100 in PBS for 1 hour at room temperature followed by blocking with 5% horse serum (Sigma-Aldrich) in PBS for 30 minutes at room temperature. Primary antibodies (see Table 1) were diluted 1:200 in 5% horse serum and incubated over night at 4° C. Before using the secondary antibody (see table below), CTMs were washed three times with PBS containing 1% Tween 20 and 0.002% Triton® X-100 (referred as PBT from here after) for 20 minutes at room temperature. Secondary antibodies (1:500) and DAPI (1:1000; Carl-Roth GmbH & Co. KG) were diluted in 5% horse serum together and incubated for 4 hours at room temperature in the dark. […] Cryo-sections were prepared by embedding fixed spheroids in O.C.T medium (Tissue-Tek), snap-freezing them in liquid nitrogen and cutting them in 10 μm thick sections. Sections were permeabilized and blocked for one hour in 0.1% Triton® X100 (in PBS+BSA). Primary antibody incubated with the sections diluted 1:50-1:100 in 1 mM MgCl2, 1 mM CaCl2, 0.1 mM MnCl2, 1% Triton® X-100 or 0.2% saponin over night at 4° C. The next day, sections were washed trice with 0.1% Triton® X100/PBS or 0.2 saponin (five minutes each) and incubated with the secondary antibody diluted 1:200 in 0.1% Triton® X100 or 0.2% saponin (in PBS) for one hour at room temperature in the dark. Finally, sections were washed again trice with 0.1% Triton® X100/PBS or 0.2% saponin and mounted with mounting medium containing DAPI or Hoechst 33342. Endothelial cells were stained with Isolectin B4.
The second-harmonics generation imaging was performed on an upright spectral multiphoton microscope (Leica TCS SP8 DIVE, non-descanned spectral detectors, objective HC IRAPO L 25×/1.00 W) using 10 μm thick CTM sections. A 1045 nm laser was used for SHG and the signal was detected with a PMT and a detection window from 517 nm to 527 nm. A second detection window was used to record autofluorescence for comparison (552 nm to 565 nm).
Sirius red staining was used to determine collagen deposition and fibrosis in paraffin sections of young versus aged mice hearts. In a first step, the paraffin sections were deparaffinised with xylene (twice 10 minutes) and an ethanol series of 100%, 95%, 80%, 70% and 50% ethanol (5 minutes each step), before washing the sections with water and PBS (5 minutes each step). In a second step, a 0.1% Picrosirius Red solution was prepared by solving 0.5 g Sirius Red (Waldeck GmbH) in 500 mL picric acid (Sigma-Aldrich) that incubated with the deparaffinised sections for 1 hour. After washing two times with acidified water, the sections were dehydrated with 100% ethanol, cleared with xylene and mounted with Pertex (Medite) […]

In the case of `CC(C)NCC(O)COc1cccc2ccccc12` (centres unmarked) [Propranolol], the “angiogenic sprouting in PE-treated CTMs” value in experiment [1] is given as “significant decrease”. Also, the “endothelial sprouting of HUVEC spheroids with supernatants of CM cultured with PE plus β-blocker” value in the experiment on HUVEC spheroids was “no significant alterations”. Further, the “direct effect on HUVEC tube formation (accumulated tube length)” value with HUVEC is “no differences; also recorded: could not be detected”. In experiment [2], the “PE-induced hypertrophic growth (CTM size, fold change)” value is reported as “diminished”. In experiment [3], the “frequency of CTM contraction (beats per minute)” value was “significantly decreased; also recorded: reduced”.
Consider `COCCc1ccc(OCC(O)CNC(C)C)cc1` (centres unmarked) [Metoprolol], for which the “angiogenic sprouting in PE-treated CTMs” value in experiment [1] is listed as “significant decrease”. For the same molecule, in the experiment on HUVEC spheroids, the “endothelial sprouting of HUVEC spheroids with supernatants of CM cultured with PE plus β-blocker” value is “no significant alterations”. The “direct effect on HUVEC tube formation (accumulated tube length)” value with HUVEC is given as “no differences; also recorded: could not be detected”. Moreover, the “frequency of CTM contraction (beats per minute)” value in experiment [3] is “significantly decreased; also recorded: reduced”.
Turning to VEGF, the “EC spheroid growth / vascular network growth and branching (cumulative sprout length), direct treatment” value with HUVEC spheroids is recorded as “significantly increased”.

B1: TGF β2: transforming growth factor β2 (R&D Systems; 302-B2), inducer of endothelial-mesenchymal transition and cardiac fibrosis (protein, UniProt P61812 303-414, looked up)
Transforming growth factor …: ALDAAYCFRNVQDNCCLRPLYIDFKRDLGWKWIHEPKGYNANFCAGACPYLWSSDTQHSRVLSLYNTINPEASASPCCVSQDLEPLTILYYIGKTPKIEQLSNMIVKSCKCS
As to B1, in the experiment on mature CTMs (mature CTMs treated 3 days with TGF β2, FIGS. 32, 40), the “endothelial-mesenchymal transition (ECs expressing vimentin, SM22α, collagen III)” value is “occurs; also recorded: single ECs expressing vimentin were found”. The “cardiac fibroblast activation (vimentin staining)” value with mature CTMs (mature CTMs with or without TGF β2, FIG. 28) is reported as “evidence of cardiac fibroblast activation”. Further, the “CTM vascularization (angiogenic sprouting)” value in the experiment with mature CTMs (mature CTMs, 200 μM PE + 10 ng/mL TGF β2, 3 days, vs PE, FIGS. 26, 27) is listed as “slightly increased; also recorded: failed to reach significance”. Besides, the “collagen deposition (SHG, Sirius Red staining)” value in the experiment on mature CTMs (mature CTMs, PE + 10 ng/mL TGF β2, 3 days, FIGS. 29-31) was “induced; also recorded: augments”.
